In US12180139B2, “Method for preparing aminoalkanoic acid derivative containing biphenyl group” (AMTIXBIO CO., LTD., priority 2019, dated 2024):

Experiments:
[1] = tested on: C. glabrata; details: RPMI1640 broth, 35° C., 48 hours, visual reading; expressed as a range value
Protocol: (§3) An in vitro antifungal susceptibility test was performed in accordance with the US Clinical and Laboratory Standards Institute (CLSI) guidelines to measure the degree of antifungal activity of the compounds synthesized in the Preparation Examples against opportunistic pathogenic fungi. […] The MIC value (μg/ ? ) is expressed as a range value. Specifically, Candida species and Cryptococcus neoformans were incubated in a Sabouraud dextrose agar (SDA) (Sigma-Aldrich) solid medium for 24 and 48 hours, respectively to obtain single colonies. The obtained single colonies were suspended in 0.85% physiological saline to prepare fungal cell suspension (1 to 5×10^6 cells/ ? ). Fungal cells 2000-fold diluted in RPMI1640 broth (Sigma-Aldrich) were seeded on 96-well plates (5×10^2 to 2.5×10^3 cells/ ? , 195 ? /well). Serial two-fold dilutions (128, 64, 32, 16, 8, 4, 2, 1, and 0.5 μg/ ? ) of compounds were prepared by diluting the compounds synthesized according to the above preparation examples. Then, 5 ? from each dilution was added to the well of the 96-well plate containing fungal cell suspension to give a final suspension of 200 ? per well. […] As a positive control, amphotericin B (AMB), which is highly toxic to the human body but is known as a representative antifungal agent, was used.

[2] = tested on: A. fumigatus; details: visual reading; expressed as a range value
Protocol: as §3

[3] = tested on: C. neoformans; details: RPMI1640 broth, 35° C., 72 hours, visual reading; expressed as a range value
[4] = tested on: interleukin 6 (IL-6); details: RAW264.7 cells, compound 8 μg/mL 1 hour, then LPS 1 μg/mL 24 hours; relative to LPS without compound
Protocol: The anti-inflammatory effects of the compounds of the present invention were evaluated using RAW264.7 cells which were stimulated to secrete interleukin 6 (IL-6). Specifically, RAW264.7 cells (obtained from Korean Cell Line Bank), mouse macrophages, were inoculated into a 12-well plate at 5×10^5 cells/well and incubated at 37° C. for 16 to 24 hours. The compounds of the present invention were added to the cell culture medium containing RAW264.7 cells incubated as above at a final concentration of 0 or 8 μg/ ? , and then incubated at 37° C. for 1 hour. Next, lipopolysaccharide (LPS, Sigma-Aldrich, USA) was further added to the medium at a final concentration of 1 μg/ ? , and the medium was incubated at 37° C. for 24 hours to induce IL-6 expression. Thereafter, IL-6 levels produced by the RAW264.7 cells were measured using an ELISA kit (Komabiotech Inc. Korea) according to the manufacturer's instructions. In Table 9, IL6 levels were expressed as a relative percentage (%) between LPS-induced IL6 levels after the treatment with the compound of the present invention and LPS-induced IL6 levels without the treatment of the compound of the present invention.

[5] = tested on: C. albicans; details: RPMI1640 broth, 35° C., 48 hours, visual reading; expressed as a range value
Protocol: as §3

[6] = tested on: P. acnes (+); test: Antibacterial MIC test (CLSI); assay type: cell-based; details: MHB liquid medium, 37° C., 24 hours
Protocol: (§1) The MIC test was conducted in accordance CLSI guidelines. […] As a positive control, Nofloxacin and Vancomycin were used.

[7] = tested on: L. monocytogenes (+); test: Antibacterial MIC test (CLSI); assay type: cell-based; details: MHB liquid medium, 37° C., 24 hours
Protocol: as §1

[8] = tested on: M. luteus (+); test: Antibacterial MIC test (CLSI); assay type: cell-based; details: MHB liquid medium, 37° C., 24 hours
Protocol: as §1

[9] = tested on: B. subtilis (+); test: Antibacterial MIC test (CLSI); assay type: cell-based; details: MHB liquid medium, 37° C., 24 hours
Protocol: as §1

[10] = tested on: S. aureus enterica (−); test: Antibacterial MIC test (CLSI); assay type: cell-based; details: MHB liquid medium, 37° C., 24 hours
Protocol: as §1

[11] = tested on: E. coli (−); test: Antibacterial MIC test (CLSI); assay type: cell-based; details: MHB liquid medium, 37° C., 24 hours
Protocol: as §1

[12] = tested on: B. coagulans (+); test: Antibacterial MIC test (CLSI); assay type: cell-based; details: MHB liquid medium, 37° C., 24 hours
Protocol: as §1

[13] = tested on: B. cereus (+); test: Antibacterial MIC test (CLSI); assay type: cell-based; details: MHB liquid medium, 37° C., 24 hours
Protocol: as §1

[14] = tested on: MRSA; test: Antibacterial MIC test (CLSI); assay type: cell-based, Methicillin-resistant Staphylococcus aureus; details: MHB liquid medium, 37° C., 24 hours
Protocol: as §1

[15] = tested on: S. aureus (+); details: MHB liquid medium, 37° C., 24 hours
Protocol: (§2) The antibacterial activities against Gram-positive bacteria, Gram-negative bacteria or multi-drug resistant bacteria were evaluated for the compounds of the present invention. The MIC test was conducted in accordance CLSI guidelines. E. coli(−), P. aeruginosa(−), and S. enterica(−) were used as Gram-negative bacteria, B. cereus(+), B. subtilis(+), B. coagulans(+), L. monocytogenes(+), M. luteus(+), P. acnes(+), S. epidermidis(+), and S. aureus(+) were used as Gram-positive bacteria. Methicillin-resistant Staphylococcus aureus (MRSA) was used as multi-drug resistant bacteria. The bacterial cells were incubated until the OD600 of the single colonies reached 0.1. […] Subsequently, bacterial cells were incubated at 37° C. for 24 hours, and then the MICs (μg/ ? ) were determined by visual reading and optical density detection at 600 nm (OD600). As a positive control, Nofloxacin and Vancomycin were used.

[16] = tested on: S. epidermidis (+); details: MHB liquid medium, 37° C., 24 hours
Protocol: as §2

| Compound | MIC (μg/mL) C. glabrata [1] | MIC (μg/mL) A. fumigatus [2] | MIC (μg/mL) C. neoformans [3] | Relative IL-6 levels (%) [4] [%] | MIC (μg/mL) C. albicans [5] | MIC P. acnes (+) [6] [µg/mL] | MIC L. monocytogenes (+) [7] [µg/mL] | MIC M. luteus (+) [8] [µg/mL] | MIC B. subtilis (+) [9] [µg/mL] | MIC S. aureus enterica (−) [10] [µg/mL] | MIC E. coli (−) [11] [µg/mL] | MIC B. coagulans (+) [12] [µg/mL] | MIC B. cereus (+) [13] [µg/mL] | MIC MRSA [14] [µg/mL] | MIC S. aureus (+) [15] [µg/mL] | MIC S. epidermidis (+) [16] [µg/mL] |
| --- | --- | --- | --- | --- | --- | --- | --- | --- | --- | --- | --- | --- | --- | --- | --- | --- |
| CCCC(N)C(=O)NCCc1ccc(-c2ccc(C(F)(F)F)cc2)cc1.Cl (racemic) [Compound 77, (R)/(S)-2-amino-N-(2-(4′-(trifluoromethyl)-[1,1′-biphenyl]-4-yl)ethyl)pentanamide hydrochloride] | 8~32 μg/mL | 8~32 μg/mL | 4~16 μg/mL | 5 | 8~32 μg/mL | – | – | – | – | – | – | – | – | – | – | – |
| CCCC(N)C(=O)NCCc1ccc(-c2ccc(F)c(F)c2)cc1.Cl (racemic) [Compound 82, (R)/(S)-2-amino-N-(2-(3′,4′-difluoro-[1,1′-biphenyl]-4-yl)ethyl)pentanamide hydrochloride] | 4~16 μg/mL | 4~16 μg/mL | 4~16 μg/mL | 3 | 4~16 μg/mL | – | – | – | – | – | – | – | – | – | – | – |
| CCCC(N)C(=O)NCc1ccc(-c2ccc(Cl)c(Cl)c2)cc1.Cl (racemic) [Compound 45, (R)/(S)-2-amino-N-((3′,4′-dichloro-[1,1′-biphenyl]-4-yl)methyl)pentanamide hydrochloride] | 8~32 μg/mL | 8~32 μg/mL | 2~8 μg/mL | 3 | 8~32 μg/mL | – | – | – | – | – | – | – | – | – | – | – |
| CCCCC(N)C(=O)NCc1ccc(-c2ccc(C(F)(F)F)cc2)cc1.Cl (racemic) [Compound 48, (R)/(S)-2-amino-N-((4′-(trifluoromethyl)-[1,1′-biphenyl]-4-yl)methyl)hexanamide hydrochloride] | 4~16 μg/mL | 4~16 μg/mL | 4~16 μg/mL | 67 | 4~16 μg/mL | – | – | – | – | – | – | – | – | – | – | – |
| CCCC(N)C(=O)NCc1ccc(-c2ccc(OC(F)(F)F)cc2)cc1.Cl (racemic) [Compound 49, (R)/(S)-2-amino-N-((4′-(trifluoromethoxy)-[1,1′-biphenyl]-4-yl)methyl)pentanamide hydrochloride] | 8~32 μg/mL | 8~32 μg/mL | 4~16 μg/mL | 50 | 8~32 μg/mL | – | – | – | – | – | – | – | – | – | – | – |
| CCCC(C(=O)NCc1ccc(-c2ccc(Cl)c(Cl)c2)cc1)N(C)C (racemic) [Compound 53, (R)/(S)-N-((3′,4′-dichloro-[1,1′-biphenyl]-4-yl)methyl)-2-(dimethylamino)pentanamide] | 8~32 μg/mL | 8~32 μg/mL | 2~8 μg/mL | 5 | 8~32 μg/mL | – | – | – | – | – | – | – | – | – | – | – |
| CCC(NC)C(=O)NCCc1ccc(-c2ccc(Cl)c(Cl)c2)cc1.Cl (racemic) [Compound 83, (R)/(S)-N-(2-(3′,4′-dichloro-[1,1′-biphenyl]-4-yl)ethyl)-2-(methylamino)butanamide hydrochloride] | 8~32 μg/mL | 8~32 μg/mL | 2~8 μg/mL | 9 | 8~32 μg/mL | – | – | – | – | – | – | – | – | – | – | – |
| CCCC(NC)C(=O)NCc1ccc(-c2ccc(C(F)(F)F)cc2)cc1.Cl (racemic) [Compound 52, (R)/(S)-2-(methylamino)-N-((4′-(trifluoromethyl)-[1,1′-biphenyl]-4-yl)methyl)pentanamide hydrochloride] | 8~32 μg/mL | 8~32 μg/mL | 4~16 μg/mL | 13 | 8~32 μg/mL | – | – | – | – | – | – | – | – | – | – | – |
| CCCC(N)C(=O)NCCc1ccc(-c2ccc(OC(F)(F)F)cc2)cc1.Cl (racemic) [Compound 80, (R)/(S)-2-amino-N-(2-(4′-(trifluoromethoxy)-[1,1′-biphenyl]-4-yl)ethyl)pentanamide hydrochloride] | 4~16 μg/mL | 4~16 μg/mL | 2~8 μg/mL | 6 | 4~16 μg/mL | – | – | – | – | – | – | – | – | – | – | – |
| CCCC(N)C(=O)NCc1ccc(-c2ccc(C(F)(F)F)cc2)cc1.Cl (racemic) [Compound 47, (R)/(S)-2-amino-N-((4′-(trifluoromethyl)-[1,1′-biphenyl]-4-yl)methyl)pentanamide hydrochloride] | 8~32 μg/mL | 8~32 μg/mL | 4~16 μg/mL | 12 | 8~32 μg/mL | – | – | – | – | – | – | – | – | – | – | – |
| CCCC(N)C(=O)Nc1ccc(-c2ccc(OC(F)(F)F)cc2)cc1.Cl (racemic) [Compound 32, (R)/(S)-2-amino-N-(4′-(trifluoromethoxy)-[1,1′-biphenyl]-4-yl)pentanamide hydrochloride] | 4~16 μg/mL | 4~16 μg/mL | 2~8 μg/mL | 16 | 4~16 μg/mL | – | – | – | – | – | – | – | – | – | – | – |
| CCCCC(N)C(=O)NCCc1ccc(-c2ccc(OC(F)(F)F)cc2)cc1.Cl (racemic) [Compound 81, (R)/(S)-2-amino-N-(2-(4′-(trifluoromethoxy)-[1,1′-biphenyl]-4-yl)ethyl)hexanamide hydrochloride] | 2~8 μg/mL | 2~8 μg/mL | 2~8 μg/mL | – | 2~8 μg/mL | 8 | <4 | <4 | 4 | 16 | 8 | <4 | 16 | 8 | 8 | 8 |
| CCCCC(NC)C(=O)NCCc1ccc(-c2ccc(Cl)c(Cl)c2)cc1.Cl (racemic) [Compound 85, (R)/(S)-N-(2-(3′,4′-dichloro-[1,1′-biphenyl]-4-yl)ethyl)-2-(methylamino)hexanamide hydrochloride] | 0.5~4 μg/mL | 0.5~4 μg/mL | 0.5~4 μg/mL | – | 0.5~4 μg/mL | 16 | 16 | 8 | 16 | >32 | >32 | 4 | 32 | 16 | 16 | 16 |
| CCCCC(NC)C(=O)Nc1ccc(-c2ccc(Cl)c(Cl)c2)cc1.Cl (racemic) [Compound 35, (R)/(S)-N-(3′,4′-dichloro-[1,1′-biphenyl]-4-yl)-2-(methylamino)hexanamide hydrochloride] | 0.5~4 μg/mL | 0.5~4 μg/mL | 0.5~4 μg/mL | – | 0.5~4 μg/mL | <4 | >64 | <4 | <4 | 64 | <4 | <4 | <4 | <4 | 8 | <4 |
